From ChEMBL document CHEMBL3813616, “Discovery of novel 7-azaindoles as PDK1 inhibitors” (Bioorg Med Chem Lett, 2016)

Experiments:
[1] = target: Insulin receptor (Homo sapiens) (UniProt P06213); assay: Inhibition of human IR (1001 to 1382 residues) assessed as enzyme activity at 1 uM using 33P ATP by radioactive filter binding assay; design: scale not given: the % may be the effect or the level left
[2] = target: Insulin receptor-related protein (Homo sapiens) (UniProt P14616); assay: Inhibition of human IRR (944 to 1236 residues) assessed as enzyme activity at 1 uM using 33P ATP by radioactive filter binding assay; design: scale not given: the % may be the effect or the level left
[3] = target: Mitogen-activated protein kinase 8 (Homo sapiens) (UniProt P45983); assay: Inhibition of human JNK1alpha1 assessed as enzyme activity at 1 uM using 33P ATP by radioactive filter binding assay; design: scale not given: the % may be the effect or the level left
[4] = target: MAP/microtubule affinity-regulating kinase 3 (Homo sapiens) (UniProt P27448); assay: Inhibition of human MARK3 (2 to 729 residues) assessed as enzyme activity at 1 uM using 33P ATP by radioactive filter binding assay; design: scale not given: the % may be the effect or the level left
[5] = target: T1, Serine/threonine-protein kinase 3 (Homo sapiens) (UniProt Q13188); assay: Inhibition of human MST2 (2 to 491 residues) assessed as enzyme activity at 1 uM using 33P ATP by radioactive filter binding assay; design: scale not given: the % may be the effect or the level left
T1 sequence (whole entry): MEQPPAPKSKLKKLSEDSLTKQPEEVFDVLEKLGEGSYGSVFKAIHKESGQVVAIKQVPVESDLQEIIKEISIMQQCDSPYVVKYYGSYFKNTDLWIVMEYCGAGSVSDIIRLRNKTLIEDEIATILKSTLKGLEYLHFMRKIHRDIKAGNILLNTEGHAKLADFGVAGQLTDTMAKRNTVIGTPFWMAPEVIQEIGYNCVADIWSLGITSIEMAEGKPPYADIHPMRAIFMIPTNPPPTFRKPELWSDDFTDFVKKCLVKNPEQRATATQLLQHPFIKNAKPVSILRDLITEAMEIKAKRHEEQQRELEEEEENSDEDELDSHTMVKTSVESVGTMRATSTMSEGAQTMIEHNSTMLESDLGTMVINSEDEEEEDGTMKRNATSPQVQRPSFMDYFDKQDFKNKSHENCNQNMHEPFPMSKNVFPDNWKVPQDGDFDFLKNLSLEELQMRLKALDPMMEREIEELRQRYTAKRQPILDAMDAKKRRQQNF

[6] = target: Serine/threonine-protein kinase PAK 6 (Homo sapiens) (UniProt Q9NQU5); assay: Inhibition of human PAK6 (2 to 681 residues) assessed as enzyme activity at 1 uM using 33P ATP by radioactive filter binding assay; design: scale not given: the % may be the effect or the level left
[7] = target: Protein kinase C alpha type (Homo sapiens) (UniProt P17252); assay: Inhibition of human PKCalpha (1 to 672 residues) assessed as enzyme activity at 1 uM using 33P ATP by radioactive filter binding assay; design: scale not given: the % may be the effect or the level left
[8] = target: Ribosomal protein S6 kinase beta-1 (Homo sapiens) (UniProt P23443); assay: Inhibition of human S6K1 (1 to 421 residues) assessed as enzyme activity at 1 uM using 33P ATP by radioactive filter binding assay; design: scale not given: the % may be the effect or the level left
[9] = target: T2, Serine/threonine-protein kinase Sgk1 (Homo sapiens) (UniProt O00141); assay: Inhibition of human SGK assessed as enzyme activity at 1 uM using 33P ATP by radioactive filter binding assay; design: scale not given: the % may be the effect or the level left
T2 sequence (whole entry): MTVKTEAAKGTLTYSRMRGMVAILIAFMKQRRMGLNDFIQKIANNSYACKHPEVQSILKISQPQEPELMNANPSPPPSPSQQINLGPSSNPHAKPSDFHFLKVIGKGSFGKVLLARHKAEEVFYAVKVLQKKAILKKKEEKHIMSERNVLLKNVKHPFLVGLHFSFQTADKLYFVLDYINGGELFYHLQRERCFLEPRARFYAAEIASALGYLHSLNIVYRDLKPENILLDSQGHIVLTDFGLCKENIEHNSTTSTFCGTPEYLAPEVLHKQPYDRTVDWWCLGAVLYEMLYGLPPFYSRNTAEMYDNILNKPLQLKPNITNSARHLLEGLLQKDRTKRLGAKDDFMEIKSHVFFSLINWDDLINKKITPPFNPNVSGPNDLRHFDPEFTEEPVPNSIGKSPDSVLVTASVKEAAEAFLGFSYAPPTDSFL

[10] = target: Proto-oncogene tyrosine-protein kinase Src (Homo sapiens) (UniProt P12931); assay: Inhibition of human SRC (1 to 536 residues) assessed as enzyme activity at 1 uM using 33P ATP by radioactive filter binding assay; design: scale not given: the % may be the effect or the level left
[11] = target: Phosphatidylinositol 4,5-bisphosphate 3-kinase catalytic subunit gamma isoform (Homo sapiens, UniProt P48736); assay: Inhibition of PI3K gamma (unknown origin)
[12] = target: Tyrosine-protein kinase BTK (Homo sapiens) (UniProt Q06187); assay: Inhibition of human BTK (2 to 659 residues) assessed as enzyme activity at 1 uM using 33P ATP by radioactive filter binding assay; design: scale not given: the % may be the effect or the level left
[13] = target: Serine/threonine-protein kinase Chk2 (Homo sapiens) (UniProt O96017); assay: Inhibition of human CHK2 (5 to 543 residues) assessed as enzyme activity at 1 uM using 33P ATP by radioactive filter binding assay; design: scale not given: the % may be the effect or the level left
[14] = target: Ephrin type-A receptor 2 (Homo sapiens) (UniProt P29317); assay: Inhibition of human EPHA2 (591 to 976 residues) assessed as enzyme activity at 1 uM using 33P ATP by radioactive filter binding assay; design: scale not given: the % may be the effect or the level left
[15] = target: Fibroblast growth factor receptor 1 (Homo sapiens) (UniProt P11362); assay: Inhibition of human FGFR1 (400 to 820 residues) assessed as enzyme activity at 1 uM using 33P ATP by radioactive filter binding assay; design: scale not given: the % may be the effect or the level left
[16] = target: Homeodomain-interacting protein kinase 2 (Homo sapiens) (UniProt Q9H2X6); assay: Inhibition of human HIPK2 (165 to 564 residues) assessed as enzyme activity at 1 uM using 33P ATP by radioactive filter binding assay; design: scale not given: the % may be the effect or the level left
Sequence of Homeodomain-interacting protein kinase 2 (Homo sapiens) (Q9H2X6 whole entry, looked up, the tested form may be a part): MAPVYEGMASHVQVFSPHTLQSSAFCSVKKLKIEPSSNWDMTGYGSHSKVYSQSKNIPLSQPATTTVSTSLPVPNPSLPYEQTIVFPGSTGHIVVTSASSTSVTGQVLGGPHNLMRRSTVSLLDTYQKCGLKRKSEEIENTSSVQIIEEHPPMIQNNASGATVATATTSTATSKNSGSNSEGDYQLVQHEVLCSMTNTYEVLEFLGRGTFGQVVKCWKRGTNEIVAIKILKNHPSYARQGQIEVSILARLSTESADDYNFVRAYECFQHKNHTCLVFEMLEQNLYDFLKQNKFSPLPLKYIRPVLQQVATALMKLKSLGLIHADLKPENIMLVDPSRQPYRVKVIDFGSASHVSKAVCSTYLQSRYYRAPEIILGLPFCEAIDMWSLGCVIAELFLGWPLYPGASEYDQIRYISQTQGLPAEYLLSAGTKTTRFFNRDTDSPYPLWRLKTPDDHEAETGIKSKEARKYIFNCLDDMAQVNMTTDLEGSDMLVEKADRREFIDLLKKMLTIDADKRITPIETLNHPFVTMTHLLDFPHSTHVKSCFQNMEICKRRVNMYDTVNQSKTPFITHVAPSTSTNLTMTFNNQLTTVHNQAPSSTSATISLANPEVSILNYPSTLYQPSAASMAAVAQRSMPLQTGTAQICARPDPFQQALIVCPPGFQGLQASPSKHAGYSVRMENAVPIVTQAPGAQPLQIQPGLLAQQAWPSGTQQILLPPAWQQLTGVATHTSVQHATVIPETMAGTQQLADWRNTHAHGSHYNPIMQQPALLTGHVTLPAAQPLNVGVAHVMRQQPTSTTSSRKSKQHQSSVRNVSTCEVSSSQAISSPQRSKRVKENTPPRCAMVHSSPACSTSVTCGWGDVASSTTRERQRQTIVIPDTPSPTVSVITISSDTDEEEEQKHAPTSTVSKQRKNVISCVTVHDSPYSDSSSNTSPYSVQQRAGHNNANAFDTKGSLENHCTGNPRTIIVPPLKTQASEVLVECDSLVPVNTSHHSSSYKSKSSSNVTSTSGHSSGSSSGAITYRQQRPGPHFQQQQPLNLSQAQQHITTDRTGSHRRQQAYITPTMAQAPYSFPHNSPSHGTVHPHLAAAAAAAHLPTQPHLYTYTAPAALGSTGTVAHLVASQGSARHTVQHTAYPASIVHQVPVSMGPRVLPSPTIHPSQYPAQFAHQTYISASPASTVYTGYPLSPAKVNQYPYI

Sequence of Insulin receptor-related protein (Homo sapiens) (P14616 27-742 limits assumed): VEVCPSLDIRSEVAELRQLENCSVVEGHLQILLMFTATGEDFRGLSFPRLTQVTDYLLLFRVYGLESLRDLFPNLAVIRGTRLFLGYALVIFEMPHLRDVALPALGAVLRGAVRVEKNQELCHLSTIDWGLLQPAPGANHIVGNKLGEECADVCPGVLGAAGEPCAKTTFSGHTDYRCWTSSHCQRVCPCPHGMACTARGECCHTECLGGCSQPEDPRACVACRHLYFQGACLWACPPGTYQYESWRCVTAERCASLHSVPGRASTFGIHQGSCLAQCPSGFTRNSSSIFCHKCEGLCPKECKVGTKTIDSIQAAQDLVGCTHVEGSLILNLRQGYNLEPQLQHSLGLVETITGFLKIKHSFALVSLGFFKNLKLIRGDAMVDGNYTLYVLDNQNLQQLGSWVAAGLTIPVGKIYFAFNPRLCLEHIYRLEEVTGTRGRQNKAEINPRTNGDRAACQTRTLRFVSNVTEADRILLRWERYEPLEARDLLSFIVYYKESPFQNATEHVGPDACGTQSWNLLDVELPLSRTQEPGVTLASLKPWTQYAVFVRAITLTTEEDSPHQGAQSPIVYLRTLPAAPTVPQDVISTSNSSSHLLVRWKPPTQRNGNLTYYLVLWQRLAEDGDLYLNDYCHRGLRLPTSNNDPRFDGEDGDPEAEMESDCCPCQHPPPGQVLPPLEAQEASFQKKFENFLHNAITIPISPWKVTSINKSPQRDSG
Sequence of Insulin receptor-related protein (Homo sapiens) (P14616 747-1297 limits assumed): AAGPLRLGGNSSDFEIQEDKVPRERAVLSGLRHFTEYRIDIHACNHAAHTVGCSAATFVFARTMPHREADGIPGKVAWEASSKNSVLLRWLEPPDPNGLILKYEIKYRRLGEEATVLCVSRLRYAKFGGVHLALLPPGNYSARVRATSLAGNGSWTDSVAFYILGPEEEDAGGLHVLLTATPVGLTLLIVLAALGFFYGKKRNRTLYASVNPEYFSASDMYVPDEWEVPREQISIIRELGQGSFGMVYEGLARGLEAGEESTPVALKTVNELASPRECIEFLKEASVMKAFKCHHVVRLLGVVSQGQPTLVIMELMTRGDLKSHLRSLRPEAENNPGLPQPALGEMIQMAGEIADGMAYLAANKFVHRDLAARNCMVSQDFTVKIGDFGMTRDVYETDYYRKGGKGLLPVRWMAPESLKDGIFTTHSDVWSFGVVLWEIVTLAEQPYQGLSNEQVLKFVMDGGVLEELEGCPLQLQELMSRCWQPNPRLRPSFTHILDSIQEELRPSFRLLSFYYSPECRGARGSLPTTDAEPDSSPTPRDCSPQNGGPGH
Sequence of Fibroblast growth factor receptor 1 (Homo sapiens) (P11362 22-822 limits assumed): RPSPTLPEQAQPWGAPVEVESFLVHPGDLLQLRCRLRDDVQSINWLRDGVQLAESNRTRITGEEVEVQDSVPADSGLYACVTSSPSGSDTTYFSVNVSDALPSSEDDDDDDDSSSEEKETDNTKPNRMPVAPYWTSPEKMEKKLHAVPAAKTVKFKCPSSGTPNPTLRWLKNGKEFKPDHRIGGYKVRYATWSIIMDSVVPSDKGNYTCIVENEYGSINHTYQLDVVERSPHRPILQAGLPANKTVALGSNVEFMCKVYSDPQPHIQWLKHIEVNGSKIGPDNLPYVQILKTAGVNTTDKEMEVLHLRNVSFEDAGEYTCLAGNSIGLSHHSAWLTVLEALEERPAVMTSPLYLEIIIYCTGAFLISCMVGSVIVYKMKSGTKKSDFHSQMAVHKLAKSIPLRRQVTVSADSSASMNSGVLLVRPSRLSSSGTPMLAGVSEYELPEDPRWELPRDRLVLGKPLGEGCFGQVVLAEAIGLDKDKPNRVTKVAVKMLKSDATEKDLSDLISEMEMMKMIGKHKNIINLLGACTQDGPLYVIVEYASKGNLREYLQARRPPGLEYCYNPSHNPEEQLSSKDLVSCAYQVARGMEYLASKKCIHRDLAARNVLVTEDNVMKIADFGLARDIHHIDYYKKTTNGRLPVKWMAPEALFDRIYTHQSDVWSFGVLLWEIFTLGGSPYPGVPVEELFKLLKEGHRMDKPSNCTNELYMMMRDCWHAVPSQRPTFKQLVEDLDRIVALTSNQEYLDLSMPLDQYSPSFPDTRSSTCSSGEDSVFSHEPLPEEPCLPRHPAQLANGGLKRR
Sequence of Proto-oncogene tyrosine-protein kinase Src (Homo sapiens) (P12931 2-536 limits assumed): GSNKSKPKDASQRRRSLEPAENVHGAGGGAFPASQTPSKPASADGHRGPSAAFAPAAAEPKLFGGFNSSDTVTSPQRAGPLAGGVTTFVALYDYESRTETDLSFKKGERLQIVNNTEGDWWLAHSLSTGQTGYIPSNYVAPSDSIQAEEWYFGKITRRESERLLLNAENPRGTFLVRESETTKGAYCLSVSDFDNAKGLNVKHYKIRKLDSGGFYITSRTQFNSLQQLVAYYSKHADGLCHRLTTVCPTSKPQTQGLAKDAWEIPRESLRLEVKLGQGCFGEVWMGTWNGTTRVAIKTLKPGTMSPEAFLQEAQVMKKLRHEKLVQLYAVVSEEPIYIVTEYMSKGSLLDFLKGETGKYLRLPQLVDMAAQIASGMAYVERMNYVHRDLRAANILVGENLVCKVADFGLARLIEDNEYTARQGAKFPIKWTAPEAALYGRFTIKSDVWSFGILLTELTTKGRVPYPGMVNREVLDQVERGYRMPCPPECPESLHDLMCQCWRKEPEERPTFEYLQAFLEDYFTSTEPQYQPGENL
Sequence of Phosphatidylinositol 4,5-bisphosphate 3-kinase catalytic subunit gamma isoform (P48736 whole entry, the tested form may be a part, canonical isoform): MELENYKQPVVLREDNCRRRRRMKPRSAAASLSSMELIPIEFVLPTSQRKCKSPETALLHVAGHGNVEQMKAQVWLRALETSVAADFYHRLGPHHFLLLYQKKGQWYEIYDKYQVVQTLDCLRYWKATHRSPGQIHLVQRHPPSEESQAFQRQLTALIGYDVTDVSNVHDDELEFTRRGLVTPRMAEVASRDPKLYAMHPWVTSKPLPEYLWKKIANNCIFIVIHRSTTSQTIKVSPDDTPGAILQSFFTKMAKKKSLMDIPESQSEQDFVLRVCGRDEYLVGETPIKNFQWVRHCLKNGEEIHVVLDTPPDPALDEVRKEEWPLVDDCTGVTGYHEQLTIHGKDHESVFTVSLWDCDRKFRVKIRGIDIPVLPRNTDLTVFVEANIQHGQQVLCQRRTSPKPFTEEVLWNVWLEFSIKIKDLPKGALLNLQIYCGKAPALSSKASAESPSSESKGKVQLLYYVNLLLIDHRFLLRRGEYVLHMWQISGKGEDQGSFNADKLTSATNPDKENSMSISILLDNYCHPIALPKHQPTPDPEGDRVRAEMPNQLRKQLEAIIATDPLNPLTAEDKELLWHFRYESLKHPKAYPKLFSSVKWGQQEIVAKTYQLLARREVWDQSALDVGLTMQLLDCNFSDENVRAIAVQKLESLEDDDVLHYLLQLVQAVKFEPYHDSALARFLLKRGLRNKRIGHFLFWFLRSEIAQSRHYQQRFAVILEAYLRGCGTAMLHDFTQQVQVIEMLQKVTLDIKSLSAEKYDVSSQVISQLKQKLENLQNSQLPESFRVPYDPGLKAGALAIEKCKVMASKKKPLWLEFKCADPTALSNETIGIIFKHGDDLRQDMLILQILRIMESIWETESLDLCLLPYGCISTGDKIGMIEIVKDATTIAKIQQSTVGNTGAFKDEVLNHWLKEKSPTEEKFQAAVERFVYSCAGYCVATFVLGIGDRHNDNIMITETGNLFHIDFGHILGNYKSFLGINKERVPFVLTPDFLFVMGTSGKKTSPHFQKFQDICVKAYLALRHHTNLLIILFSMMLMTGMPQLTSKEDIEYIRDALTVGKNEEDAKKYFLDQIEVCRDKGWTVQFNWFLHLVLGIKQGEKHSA

Compound | Activity [1] | Activity [2] | Activity [3] | Activity [4] | Activity [5] | Activity [6] | Activity [7] | Activity [8] | Activity [9] | Activity [10] | IC50 [11] | Activity [12] | Activity [13] | Activity [14] | Activity [15] | Activity [16]
CCc1cc(-c2c[nH]c3ncc(-c4cnn(C5CCNCC5)c4)cc23)nc(N)n1 | -8% | -42% | -31% | -89% | -63% | -5% | -73% | -66% | -78% | -34% | > 10 µM | -31% | -81% | -16% | -79% | -99%
CCCCc1cc(-c2c[nH]c3ncccc23)nc(N)n1 | – | -82% | -6% | -58% | -33% | 3% | -18% | -77% | -12% | 7% | > 10 µM | – | -44% | 17% | 3% | -67%
CCCCc1cc(-c2c[nH]c3ncc(-c4cnn(C5CCNCC5)c4)cc23)nc(N)n1 | -28% | -86% | -41% | -95% | -86% | -50% | -55% | -84% | -78% | -68% | – | -28% | -92% | -53% | -80% | -92%
Nc1nccc(-c2c[nH]c3ncccc23)n1 [MERIOLIN 1] | -6% | -9% | -5% | -59% | -20% | -27% | -28% | -71% | -42% | -11% | > 10 µM | -13% | -37% | 25% | -8% | -79%
